Results published in patent US11472808B2, “Substituted pyrrolo[1,2-c]pyrimidines as hepatitis B antiviral agents” (Enanta Pharmaceuticals, Inc., priority 2019, dated 2022).

Test system: HBV
Assay: HepAD38 anti-HBV assay: reduction of viral product accumulation (virion DNA qPCR, HBsAg/HBeAg ELISA)
Assay type: cell-based
Conditions: Hepatitis B virus, 120 h; HepAD38 cells; concentration reducing viral product accumulation by 50% relative to no drug controls; harvest five days after compound addition; read-out: HepAD38 EC50
Summary of the method: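 Tetracycline-free HepAD38 cells treated 5 days with compound (1:200 DMSO dilution), or 8 days with media and compound refreshed on d2 and d5. Virion DNA quantified by qPCR; HBsAg or HBeAg by ELISA. EC50 is the concentration reducing viral product accumulation 50% versus no-drug controls.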

Row | SMILES | EC50
1 | CSC[C@]1(O)CC2=C(c3ccn(C(F)F)n3)[C@H](c3ccc(F)cc3Cl)N=C(c3nccs3)N2C1 [Example 143] | 100 to 400 nM
2 | O=C(N[C@H]1CC2=C(c3ccn(C(F)F)n3)[C@H](c3ccc(F)cc3Cl)N=C(c3nccs3)N2C1)N1CCS(=O)(=O)CC1 [Example 219] | 100 to 400 nM
3 | COC(=O)c1cc(S(=O)(=O)N[C@H]2CC3=C(c4ccn(C(F)F)n4)[C@H](c4ccc(F)cc4Cl)N=C(c4nccs4)N3C2)c(C)cc1F [Example 26] | > 400 nM
4 | O=S(=O)(N[C@H]1CC2=C(c3ccn(C(F)F)n3)[C@H](c3ccc(F)cc3Cl)N=C(c3nccs3)N2C1)c1cccc(Br)n1 [Example 366] | < 100 nM
5 | COC(=O)OC[C@@]1(F)CC2=C(c3ccn(C(F)F)n3)[C@H](c3ccc(F)cc3Cl)N=C(c3nccs3)N2C1 [Example 183] | 100 to 400 nM
6 | O=C(O)Cc1ccc(S(=O)(=O)N[C@H]2CC3=C(c4ccn(C(F)F)n4)[C@H](c4ccc(F)cc4Cl)N=C(c4nccs4)N3C2)cc1 [Example 37] | > 400 nM
7 | OCCOC[C@@]1(O)CC2=C(c3ccn(C(F)F)n3)[C@H](c3ccc(F)cc3Cl)N=C(c3nccs3)N2C1 [Example 111] | > 400 nM
8 | C=CCN(C[C@@]1(O)CC2=C(c3ccn(C(F)F)n3)[C@H](c3ccc(F)cc3Cl)N=C(c3nccs3)N2C1)S(C)(=O)=O [Example 128] | > 400 nM
9 | CC(=O)OCCCCS(=O)(=O)N[C@H]1CC2=C(c3ccn(C(F)F)n3)[C@H](c3ccc(F)cc3Cl)N=C(c3nccs3)N2C1 [Example 279] | < 100 nM
10 | O=C(N[C@H]1CC2=C(c3ccn(C(F)F)n3)[C@H](c3ccc(F)cc3Cl)N=C(c3nccs3)N2C1)C1CCC(O)CC1 (stereo partly shown) [Example 249] | 100 to 400 nM
11 | O=S(=O)(N[C@H]1CC2=C(c3ccn(C(F)F)n3)[C@H](c3ccc(F)cc3Cl)N=C(c3nccs3)N2C1)c1cccc(-n2cccn2)n1 [Example 423] | 100 to 400 nM
12 | COC(=O)[C@H]1C[C@H](S(=O)(=O)N[C@H]2CC3=C(c4ccn(C(F)F)n4)[C@H](c4ccc(F)cc4Cl)N=C(c4nccs4)N3C2)C1 [Example 14] | 100 to 400 nM
13 | CCOC(=O)/C=C/[C@@]1(F)CC2=C(c3ccn(C(F)F)n3)[C@H](c3ccc(F)cc3Cl)N=C(c3nccs3)N2C1 [Example 173] | < 100 nM
14 | O=S(=O)(CCN1CCCC1)N[C@H]1CC2=C(c3ccn(C(F)F)n3)[C@H](c3ccc(F)cc3Cl)N=C(c3nccs3)N2C1 [Example 54] | 100 to 400 nM
15 | O=C(N[C@H]1CC2=C(c3ccn(C(F)F)n3)[C@H](c3ccc(F)cc3Cl)N=C(c3nccs3)N2C1)OC1CCCCC1 [Example 251] | < 100 nM
16 | C#CC1(O)CCN(S(=O)(=O)N[C@H]2CC3=C(c4ccn(C(F)F)n4)[C@H](c4ccc(F)cc4Cl)N=C(c4cccs4)N3C2)CC1 [Example 265] | < 100 nM
17 | O=S(=O)(N[C@H]1CC2=C(c3ccn(C(F)F)n3)[C@H](c3ccc(F)cc3Cl)N=C(c3nccs3)N2C1)[C@H]1CC[C@](O)(c2cccnc2)CC1 [Example 105] | < 100 nM
18 | O=C(CC1(S(=O)(=O)N[C@H]2CC3=C(c4ccn(C(F)F)n4)[C@H](c4ccc(F)cc4Cl)N=C(c4nccs4)N3C2)CC1)NCc1ccccn1 [Example 372] | < 100 nM
19 | O=S(=O)(N[C@H]1CC2=C(c3ccn(C(F)F)n3)[C@H](c3ccc(F)cc3Cl)N=C(c3nccs3)N2C1)N1C[C@@H](O)[C@@H](O)C1 [Example 103] | < 100 nM
20 | O=C(N[C@H]1CC2=C(c3ccn(C(F)F)n3)[C@H](c3ccc(F)cc3Cl)N=C(c3nccs3)N2C1)N1C[C@@H](O)[C@@H](O)C1 [Example 226] | 100 to 400 nM

Row | SMILES | EC50
21 | CS(=O)(=O)C[C@]1(O)CC2=C(c3ccn(C(F)F)n3)[C@H](c3ccc(F)cc3Cl)N=C(c3nccs3)N2C1 [Example 145] | > 400 nM
22 | O=S(=O)(C[C@@]1(F)CC2=C(c3ccn(C(F)F)n3)[C@H](c3ccc(F)cc3Cl)N=C(c3nccs3)N2C1)c1ccccc1 [Example 196] | 100 to 400 nM
23 | O=C(O)CCCCS(=O)(=O)N[C@H]1CC2=C(c3ccn(C(F)F)n3)[C@H](c3ccc(F)cc3Cl)N=C(c3nccs3)N2C1 [Example 19] | 100 to 400 nM
24 | O=C(N[C@H]1CC2=C(c3ccn(C(F)F)n3)[C@H](c3ccc(F)cc3Cl)N=C(c3nccs3)N2C1)c1cnccn1 [Example 233] | < 100 nM
25 | C[C@@H](NC(=O)CC1(S(=O)(=O)N[C@H]2CC3=C(c4ccn(C(F)F)n4)[C@H](c4ccc(F)cc4Cl)N=C(c4nccs4)N3C2)CC1)c1ccccn1 [Example 373] | < 100 nM
26 | O=C(N[C@H]1CC2=C(c3ccn(C(F)F)n3)[C@H](c3ccc(F)cc3Cl)N=C(c3nccs3)N2C1)c1cccnc1 [Example 227] | < 100 nM
27 | O=S(=O)(Nc1ccc(C(O)c2ccccn2)cc1)N[C@H]1CC2=C(c3ccn(C(F)F)n3)[C@H](c3ccc(F)cc3Cl)N=C(c3nccs3)N2C1 (stereo partly shown) [Example 348] | < 100 nM
28 | COC(=O)C1CCN(C(=O)N[C@H]2CC3=C(c4ccn(C(F)F)n4)[C@H](c4ccc(F)cc4Cl)N=C(c4nccs4)N3C2)CC1 [Example 211] | 100 to 400 nM
29 | C=CCNC[C@@]1(O)CC2=C(c3ccn(C(F)F)n3)[C@H](c3ccc(F)cc3Cl)N=C(c3nccs3)N2C1 [Example 116] | > 400 nM
30 | Cc1cc(F)c(C(=O)O)cc1S(=O)(=O)N[C@H]1CC2=C(c3ccn(C(F)F)n3)[C@H](c3ccc(F)cc3Cl)N=C(c3nccs3)N2C1 [Example 29] | > 400 nM
31 | O=C(N[C@H]1CC2=C(c3ccn(C(F)F)n3)[C@H](c3ccc(F)cc3Cl)N=C(c3nccs3)N2C1)N1CCC[C@@H](O)C1 [Example 223] | 100 to 400 nM
32 | O=C(N[C@H]1CC2=C(c3ccn(C(F)F)n3)[C@H](c3ccc(F)cc3Cl)N=C(c3nccs3)N2C1)C1CC(O)C1 (stereo partly shown) [Example 250] | 100 to 400 nM
33 | O=S(=O)(NCc1nccs1)N[C@H]1CC2=C(c3ccn(C(F)F)n3)[C@H](c3ccc(F)cc3Cl)N=C(c3nccs3)N2C1 [Example 307] | < 100 nM
34 | CS(=O)(=O)NC[C@@]1(N)CC2=C(c3ccn(C(F)F)n3)[C@H](c3ccc(F)cc3Cl)N=C(c3nccs3)N2C1 [Example 148] | > 400 nM
35 | OC[C@@]1(F)CC2=C(c3ccn(C(F)F)n3)[C@H](c3ccc(F)cc3Cl)N=C(c3nccs3)N2C1 [Example 166] | 100 to 400 nM
36 | O=S(=O)(NCC1(c2ccccn2)CC1)N[C@H]1CC2=C(c3ccn(C(F)F)n3)[C@H](c3ccc(F)cc3Cl)N=C(c3nccs3)N2C1 [Example 316] | 100 to 400 nM
37 | COC(=O)c1cccc(S(=O)(=O)NC[C@]2(O)CC3=C(c4ccn(C(F)F)n4)[C@H](c4ccc(F)cc4Cl)N=C(c4nccs4)N3C2)c1 [Example 130] | 100 to 400 nM
38 | O=S(=O)(N[C@H]1CC2=C(c3ccn(C(F)F)n3)[C@H](c3ccc(F)cc3Cl)N=C(c3nccs3)N2C1)C1CC(OCc2ccccc2)C1 (stereo partly shown) [Example 296] | < 100 nM
39 | CCOC(=O)CC(NS(=O)(=O)N[C@H]1CC2=C(c3ccn(C(F)F)n3)[C@H](c3ccc(F)cc3Cl)N=C(c3nccs3)N2C1)c1ccccn1 (stereo partly shown) [Example 355] | 100 to 400 nM
40 | O=C(O)c1ccc(C#CCN2CCN([C@H]3CC4=C(c5ccn(C(F)F)n5)[C@H](c5ccc(F)cc5Cl)N=C(c5nccs5)N4C3)C2=O)cc1 [Example 43] | > 400 nM

Row | SMILES | EC50
41 | CCOC(=O)Cn1cc(S(=O)(=O)N[C@H]2CC3=C(c4ccn(C(F)F)n4)[C@H](c4ccc(F)cc4Cl)N=C(c4nccs4)N3C2)cn1 [Example 38] | > 400 nM
42 | CNC(=O)OCC1(F)CC2=C(c3ccn(C(F)F)n3)[C@H](c3ccc(F)cc3Cl)N=C(c3nccs3)N2C1 (stereo partly shown) [Example 178] | < 100 nM
43 | O[C@@]1(CN2CCOCC2)CC2=C(c3ccn(C(F)F)n3)[C@H](c3ccc(F)cc3Cl)N=C(c3nccs3)N2C1 [Example 139] | 100 to 400 nM
44 | CS(=O)(=O)CC(NS(=O)(=O)N[C@H]1CC2=C(c3ccn(C(F)F)n3)[C@H](c3ccc(F)cc3Cl)N=C(c3nccs3)N2C1)c1ccccn1 (stereo partly shown) [Example 345] | < 100 nM
45 | O=S(=O)(NC1CCC1)N[C@H]1CC2=C(c3ccn(C(F)F)n3)[C@H](c3ccc(F)cc3Cl)N=C(c3nccs3)N2C1 [Example 415] | < 100 nM
46 | CS(=O)(=O)CCS(=O)(=O)N[C@H]1CC2=C(c3ccn(C(F)F)n3)[C@H](c3ccc(F)cc3Cl)N=C(c3nccs3)N2C1 [Example 328] | < 100 nM
47 | COC(=O)CCCS(=O)(=O)N[C@H]1CC2=C(c3ccn(C(F)F)n3)[C@H](c3ccc(F)cc3Cl)N=C(c3nccs3)N2C1 [Example 9] | < 100 nM
48 | O=C(O)CCCS(=O)(=O)N[C@H]1CC2=C(c3ccn(C(F)F)n3)[C@H](c3ccc(F)cc3Cl)N=C(c3nccs3)N2C1 [Example 11] | < 100 nM
49 | O=S(=O)(N[C@H]1CC2=C(c3ccn(C(F)F)n3)[C@H](c3ccc(F)cc3Cl)N=C(c3nccs3)N2C1)c1cc(F)cc(F)c1 [Example 407] | 100 to 400 nM
50 | O=S(=O)(NCc1ccccc1)N[C@H]1CC2=C(c3ccn(C(F)F)n3)[C@H](c3ccc(F)cc3Cl)N=C(c3nccs3)N2C1 [Example 305] | 100 to 400 nM
51 | COC(=O)c1ccc(S(=O)(=O)NCC2(F)CC3=C(c4ccn(C(F)F)n4)[C@H](c4ccc(F)cc4Cl)N=C(c4nccs4)N3C2)cc1 (stereo partly shown) [Example 191] | > 400 nM
52 | COC(=O)N[C@H]1CC2=C(c3ccn(C(F)F)n3)[C@H](c3ccc(F)cc3Cl)N=C(c3nccs3)N2C1 [Example 198] | < 100 nM
53 | C=CCNC[C@@]1(N)CC2=C(c3ccn(C(F)F)n3)[C@H](c3ccc(F)cc3Cl)N=C(c3nccs3)N2C1 [Example 149] | > 400 nM
54 | O=S(=O)(NCc1ccccn1)N[C@H]1CC2=C(c3ccn(C(F)F)n3)[C@H](c3ccc(F)cc3Cl)N=C(c3nccs3)N2C1 [Example 306] | 100 to 400 nM
55 | O[C@]1(CCl)CC2=C(c3ccn(C(F)F)n3)[C@H](c3ccc(F)cc3Cl)N=C(c3nccs3)N2C1 [Example 125] | < 100 nM
56 | O=C(N[C@H]1CC2=C(c3ccn(C(F)F)n3)[C@H](c3ccc(F)cc3Cl)N=C(c3nccs3)N2C1)OC1CCCC1 [Example 252] | > 400 nM
57 | O=C(O)C1CCCN(C(=O)C2CCCN(CCS(=O)(=O)N[C@H]3CC4=C(c5ccn(C(F)F)n5)[C@H](c5ccc(F)cc5Cl)N=C(c5nccs5)N4C3)C2)C1 (stereo partly shown) [Example 69] | > 400 nM
58 | O=C(N[C@H]1CC2=C(c3ccn(C(F)F)n3)[C@H](c3ccc(F)cc3Cl)N=C(c3nccs3)N2C1)N1CCC(O)(CO)CC1 [Example 241] | 100 to 400 nM
